The nature of experiment [1]: inhibitors of clade B AD8 Env fusion, dose response, cell-based, cherry-pick (AID 652062).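 Further: luciferase signal from cell-cell fusion driven by HIV-1 clade B AD8 Env; potency is for inhibitors of fusion seen as a drop in luminescence.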 Type of experiment: functional.
The nature of experiment [2]: off-target signal loss in HeLa-CEM21 co-culture – HeLa F-luc CTL cells, cherry-picked, counter-screen for HIV-1 Env fusion inhibitor project, dose response (AID 652040).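 Further: potency for signal decrease marking cytotoxic or nonspecific inhibition.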 Type of experiment: functional, cell-based. On the technique in general: The purpose of a counterscreen is to sort out artefacts and off-target activity.
A short description of experiment [3]: inhibitors of HIV Env-driven cell fusion, dose response, cherry-pick (AID 652057). Type of experiment: functional, cell-based.
Experiment [4] can be described thus: ZM109 Env clade C HIV-1 fusion inhibitors, dose response, HeLa effector, CEM target cells, luciferase, cherry-pick (AID 652058). Type of experiment: functional, cell-based.
Experiment [5] deals with T1, Fatty acid synthase (Homo sapiens, UniProt P49327). The experiment is described as follows: FAS thioesterase domain inhibitors, dose response, biochemical, kinetic fluorescence intensity (AID 624326).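 Further: rate of fluorescence rise from hydrolysis of a fluorogenic O-methyl fluorescein ester substrate.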 Type of experiment: functional.
Experiment [6] addresses T1, Fatty acid synthase. Description: FAS thioesterase domain inhibitors, dose response, biochemical, endpoint fluorescence intensity, uHTS hits (AID 624327).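 Further: fluorescence from hydrolysis of an O-methyl fluorescein acyl ester substrate by the enzyme.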 Type of experiment: functional.
Experiment [7] addresses T2, Zinc finger protein mex-5 (Caenorhabditis elegans, UniProt Q9XUB2).
T2 sequence (Q9XUB2 whole entry): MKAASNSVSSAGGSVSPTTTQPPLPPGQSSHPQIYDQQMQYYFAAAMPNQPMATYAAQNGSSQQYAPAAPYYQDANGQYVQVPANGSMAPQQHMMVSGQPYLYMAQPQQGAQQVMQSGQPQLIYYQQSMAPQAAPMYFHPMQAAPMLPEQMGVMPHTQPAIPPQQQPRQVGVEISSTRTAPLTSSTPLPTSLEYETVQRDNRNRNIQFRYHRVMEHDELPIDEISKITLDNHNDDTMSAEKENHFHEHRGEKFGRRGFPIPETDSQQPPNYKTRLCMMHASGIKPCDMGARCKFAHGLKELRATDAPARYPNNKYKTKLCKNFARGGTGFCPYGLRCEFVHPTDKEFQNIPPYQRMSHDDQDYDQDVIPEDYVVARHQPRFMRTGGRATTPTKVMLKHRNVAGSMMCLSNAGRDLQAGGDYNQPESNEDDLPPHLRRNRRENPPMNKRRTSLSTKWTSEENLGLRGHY
Description: MEX-5/TCR-2 RNA interaction inhibitors, dose response, biochemical, C. elegans, fluorescence polarization (AID 1960). A general note: In fluorescence polarisation assays a small probe gives low polarisation when free and higher when bound to something large.

The nature of experiment [8]: cytotoxicity in HEK-293T cells, dose response, cytotoxicity control for TCR NF-kB inhibitor project, luminescence, T-cell screen hits (AID 489026).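 Further: cells exposed to compound about 14 hours before the viability readout.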 Type of experiment: functional, cell-based.
Experiment [9] has as its system BJ. Description: cells. Type of experiment: functional, cell-based. Conditions: Homo sapiens.
Experiment [10] deals with BJ. The experiment is described as follows: cytotoxicity toward BJ-TERT-LT-ST fibroblasts, dose response, cell-based, RAS-independent, luminescence (AID 1935).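 Further: BJ fibroblasts immortalized with TERT plus LT and ST oncogenes.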 Type of experiment: functional. Conditions: Homo sapiens.
The subject of experiment [11] is BJ. Description: cytotoxicity toward BJ-TERT fibroblasts, dose response, cell-based, RAS-independent, luminescence (AID 1933). The note with it: Homo sapiens. Type of experiment: functional.
Experiment [12] in a line: cytotoxicity toward DRD oncogenic fibroblasts, dose response, cell-based, non-viral oncogenic, luminescence (AID 1934). Type of experiment: functional. Conditions: Homo sapiens.
Experiment [13] has as its target T3, RNA-binding protein pos-1 (Caenorhabditis elegans, UniProt G5EF15).
T3 sequence (G5EF15 whole entry): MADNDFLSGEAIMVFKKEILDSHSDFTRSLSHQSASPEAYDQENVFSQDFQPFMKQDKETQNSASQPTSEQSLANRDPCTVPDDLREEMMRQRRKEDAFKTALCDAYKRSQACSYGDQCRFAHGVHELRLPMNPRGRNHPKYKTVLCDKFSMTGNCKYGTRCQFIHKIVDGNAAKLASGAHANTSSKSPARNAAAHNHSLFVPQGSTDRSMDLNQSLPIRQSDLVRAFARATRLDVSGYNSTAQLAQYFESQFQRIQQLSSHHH
Description: inhibitors of POS-1/mex-3 RNA binding, dose response, biochemical, fluorescence polarization (AID 1964).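 Further: purified POS-1 fused to maltose binding protein made in E. coli; potency of compounds blocking POS-1 binding to fluorescent RNA.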

Experiment [14] relates to Streptococcus. Description: Group A Streptococcus viability loss, dose response, counter-screen for streptokinase expression inhibitor project, luminescence, BacTiterGlo (AID 1915).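 Further: potency for reduction of bacterial viability or growth.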 Type of experiment: functional, organism-based.
Experiment [15] concerns the target Nonstructural protein 1 (Influenza A virus, UniProt Q194T2). Type of experiment: functional, Influenza A virus (A/California/07/2009(H1N1)).
Experiment [16] has as its system Streptococcus sp. 'group A'. The experiment is described as follows: growth inhibition of control SK(-) GAS strain, dose response, counter-screen for streptokinase expression inhibitor project, luminescence, kanamycin, BacTiterGlo, confirmation (AID 1900). Type of experiment: functional, organism-based.
Experiment [17] in a line: NIH-3T3 fibroblast cytotoxicity, dose response, cytotoxicity control, cell-based, fluorescence, Alamar Blue, secondary assay (AID 2327).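 Further: NIH-3T3 mouse fibroblasts cultured with fluconazole at 8 µg/mL.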 Type of experiment: functional. Background: Resazurin is reduced to fluorescent resorufin, in cell work by metabolically active cells.
Experiment [18] can be described thus: C. albicans growth with fluconazole, confirmation, fluorescence, retest (AID 2467). Type of experiment: functional, cell-based.
The target in experiment [19] is Large T antigen (Simian virus 40, UniProt P03070). Type of experiment: functional, Betapolyomavirus macacae.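 Further: Confirmatory-stage PubChem screen for compounds that inhibit SV40 T antigen.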
Experiment [20] has as its target Glyceraldehyde-3-phosphate dehydrogenase (Homo sapiens, UniProt P04406).
Experiment [21] can be described thus: inhibitors of firefly luciferase expression or activity, dose response, H4 neuroglioma cells, luminescence (AID 1990). Type of experiment: functional, cell-based.
A short description of experiment [22]: inhibitors of SNCA 5'UTR-driven reporter translation, confirmation, H4 neuroglioma cells, luminescence (AID 1988). Type of experiment: functional, cell-based.
Experiment [23] can be described thus: Luminescence Cell-Based Dose Response HTS to Identify Inhibitors of 5'UTR Stem-Loop Driven Prion Protein mRNA Translation in H4 Neuroglioblastoma Cells. [Related pubchem assays: 1827 (Project Summary), 1813 (Primary HTS)]. Type of experiment: functional.
Experiment [24] is described as follows: growth suppression of PTEN-null colon cells, dose response, cell-based, HCT116 PTEN knockout (AID 1047).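 Further: HCT116 colon tumor cells with PTEN knocked out; cells exposed to compound for 60 hours before readout; potency for loss of cell viability measured by luminescence.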 Type of experiment: functional.
Experiment [25] can be described thus: cytotoxicity toward NIH3T3 fibroblasts, dose response, counter-screen, cell-based, ATP luminescence, mouse fibroblasts (AID 2010).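 Further: cells exposed to compound for about 90 hours before reading.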 Type of experiment: functional.
Experiment [26] concerns the target T4, Heat shock factor protein 1 (Mus musculus, UniProt P38532).
T4 sequence (P38532 whole entry): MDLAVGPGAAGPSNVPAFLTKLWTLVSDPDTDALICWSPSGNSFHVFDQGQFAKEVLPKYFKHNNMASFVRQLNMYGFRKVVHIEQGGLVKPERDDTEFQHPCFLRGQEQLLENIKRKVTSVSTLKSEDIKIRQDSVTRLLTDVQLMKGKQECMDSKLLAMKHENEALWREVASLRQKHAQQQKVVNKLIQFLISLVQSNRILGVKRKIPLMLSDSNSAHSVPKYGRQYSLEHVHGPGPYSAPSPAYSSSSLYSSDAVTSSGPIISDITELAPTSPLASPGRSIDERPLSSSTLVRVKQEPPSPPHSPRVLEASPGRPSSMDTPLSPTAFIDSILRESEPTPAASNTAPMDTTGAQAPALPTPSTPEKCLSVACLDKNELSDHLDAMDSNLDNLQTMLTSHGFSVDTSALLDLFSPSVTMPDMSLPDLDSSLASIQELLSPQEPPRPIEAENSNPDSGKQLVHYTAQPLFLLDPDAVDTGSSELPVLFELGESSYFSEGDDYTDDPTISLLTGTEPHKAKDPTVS
Description: inhibition of MG132-induced HSE-luciferase signal, confirmation, cell-based, NIH3T3, luminescence, dose retest (AID 2382).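 Further: NIH3T3 fibroblasts with HSF1-driven luciferase reporter stressed by proteasome inhibitor MG132; luminescence from HSF1-driven luciferase expression after 8 hours of MG132 stress.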 Type of experiment: functional.

A short description of experiment [27]: inhibitors of intracellular T. cruzi replication, confirmation, NIH3T3 host cells, beta-gal luminescence (AID 2044).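 Further: intracellular parasites grown in NIH/3T3 mouse fibroblasts as host cells; luminescent beta-galactosidase reporter signal from transgenic T. cruzi replicating inside host cells; inhibitors lower the luminescence signal.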 Type of experiment: functional, cell-based.
Experiment [28] can be described thus: growth suppression of beta-catenin-knockout colon cells, dose response, cell-based, HCT116, human colon tumor (AID 1045).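 Further: HCT116 colon tumor cells with beta catenin knocked out; cells exposed to compound for 60 hours.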 Type of experiment: functional.

The structures appear in SMILES notation. The source made the active and inactive calls.

The results in this text go back to ChEMBL document CHEMBL1201862, “PubChem BioAssay data set” (2004).

Nonstructural protein 1, sequence (Q194T2 whole entry): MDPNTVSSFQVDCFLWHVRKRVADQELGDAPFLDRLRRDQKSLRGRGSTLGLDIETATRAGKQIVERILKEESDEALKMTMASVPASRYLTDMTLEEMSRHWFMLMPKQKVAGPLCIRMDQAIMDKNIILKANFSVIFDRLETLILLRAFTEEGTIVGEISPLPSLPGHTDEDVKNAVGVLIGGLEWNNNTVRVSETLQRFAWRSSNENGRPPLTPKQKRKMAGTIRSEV
T1 sequence (P49327 whole entry, the tested form may be a part): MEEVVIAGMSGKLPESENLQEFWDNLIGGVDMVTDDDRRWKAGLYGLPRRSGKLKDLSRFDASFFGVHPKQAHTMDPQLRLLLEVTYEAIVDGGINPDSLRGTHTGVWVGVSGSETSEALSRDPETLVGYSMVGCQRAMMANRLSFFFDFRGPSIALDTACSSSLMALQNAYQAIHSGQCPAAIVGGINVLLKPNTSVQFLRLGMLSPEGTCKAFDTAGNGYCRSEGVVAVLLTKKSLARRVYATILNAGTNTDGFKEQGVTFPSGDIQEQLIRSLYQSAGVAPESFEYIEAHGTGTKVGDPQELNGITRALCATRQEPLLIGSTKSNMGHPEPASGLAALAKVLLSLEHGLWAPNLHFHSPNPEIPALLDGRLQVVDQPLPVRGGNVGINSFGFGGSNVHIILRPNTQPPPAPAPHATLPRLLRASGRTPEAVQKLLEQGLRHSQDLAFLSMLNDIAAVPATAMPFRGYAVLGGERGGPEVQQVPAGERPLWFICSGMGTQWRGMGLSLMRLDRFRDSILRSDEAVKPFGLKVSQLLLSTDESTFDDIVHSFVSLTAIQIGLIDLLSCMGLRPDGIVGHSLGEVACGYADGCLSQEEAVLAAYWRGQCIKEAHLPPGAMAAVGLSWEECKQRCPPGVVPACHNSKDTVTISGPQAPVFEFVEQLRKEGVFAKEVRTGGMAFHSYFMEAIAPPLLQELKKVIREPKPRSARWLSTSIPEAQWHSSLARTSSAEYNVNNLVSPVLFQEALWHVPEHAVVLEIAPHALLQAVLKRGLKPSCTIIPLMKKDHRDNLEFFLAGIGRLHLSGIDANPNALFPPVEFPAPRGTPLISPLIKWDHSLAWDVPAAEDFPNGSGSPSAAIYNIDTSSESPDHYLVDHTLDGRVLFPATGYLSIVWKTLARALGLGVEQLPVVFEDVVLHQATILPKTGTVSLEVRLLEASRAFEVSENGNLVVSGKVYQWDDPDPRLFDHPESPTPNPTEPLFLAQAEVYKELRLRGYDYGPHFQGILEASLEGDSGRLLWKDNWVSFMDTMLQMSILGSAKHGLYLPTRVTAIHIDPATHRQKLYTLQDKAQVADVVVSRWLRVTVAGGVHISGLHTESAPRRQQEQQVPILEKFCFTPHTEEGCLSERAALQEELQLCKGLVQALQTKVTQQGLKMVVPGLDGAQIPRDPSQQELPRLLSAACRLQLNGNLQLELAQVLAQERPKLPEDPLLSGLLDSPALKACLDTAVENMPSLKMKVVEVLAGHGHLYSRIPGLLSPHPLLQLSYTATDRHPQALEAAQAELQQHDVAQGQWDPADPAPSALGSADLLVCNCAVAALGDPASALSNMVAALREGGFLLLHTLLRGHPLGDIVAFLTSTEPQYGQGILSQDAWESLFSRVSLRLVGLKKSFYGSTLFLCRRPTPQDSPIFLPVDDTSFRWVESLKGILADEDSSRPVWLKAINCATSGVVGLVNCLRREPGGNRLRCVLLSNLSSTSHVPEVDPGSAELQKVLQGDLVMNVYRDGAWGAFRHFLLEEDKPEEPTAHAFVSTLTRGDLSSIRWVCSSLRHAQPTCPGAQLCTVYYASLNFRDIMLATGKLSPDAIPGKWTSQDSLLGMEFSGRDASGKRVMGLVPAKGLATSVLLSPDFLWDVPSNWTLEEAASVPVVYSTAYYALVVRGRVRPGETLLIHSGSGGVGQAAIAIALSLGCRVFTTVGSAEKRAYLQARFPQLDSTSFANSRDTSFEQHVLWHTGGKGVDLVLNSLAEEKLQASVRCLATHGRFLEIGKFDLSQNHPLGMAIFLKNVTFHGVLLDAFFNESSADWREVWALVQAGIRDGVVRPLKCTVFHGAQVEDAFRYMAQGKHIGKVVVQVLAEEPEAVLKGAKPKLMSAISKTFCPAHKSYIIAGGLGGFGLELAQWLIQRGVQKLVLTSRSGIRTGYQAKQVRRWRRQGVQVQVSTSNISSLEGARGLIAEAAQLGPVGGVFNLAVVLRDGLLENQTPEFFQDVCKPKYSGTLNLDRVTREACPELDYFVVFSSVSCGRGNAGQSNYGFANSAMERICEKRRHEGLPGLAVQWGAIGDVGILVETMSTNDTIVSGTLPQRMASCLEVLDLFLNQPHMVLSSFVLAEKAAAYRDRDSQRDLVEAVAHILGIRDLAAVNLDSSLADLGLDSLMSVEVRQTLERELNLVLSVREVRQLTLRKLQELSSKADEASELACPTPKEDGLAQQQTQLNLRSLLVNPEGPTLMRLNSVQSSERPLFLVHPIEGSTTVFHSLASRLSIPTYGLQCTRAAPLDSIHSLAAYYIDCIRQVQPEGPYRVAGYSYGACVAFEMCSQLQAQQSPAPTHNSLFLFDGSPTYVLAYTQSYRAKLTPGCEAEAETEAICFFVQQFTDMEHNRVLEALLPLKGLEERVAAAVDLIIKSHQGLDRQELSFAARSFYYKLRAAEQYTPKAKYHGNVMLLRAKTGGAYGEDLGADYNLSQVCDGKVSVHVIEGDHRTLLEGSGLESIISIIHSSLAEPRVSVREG
Glyceraldehyde-3-phosphate dehydrogenase, sequence (P04406 whole entry): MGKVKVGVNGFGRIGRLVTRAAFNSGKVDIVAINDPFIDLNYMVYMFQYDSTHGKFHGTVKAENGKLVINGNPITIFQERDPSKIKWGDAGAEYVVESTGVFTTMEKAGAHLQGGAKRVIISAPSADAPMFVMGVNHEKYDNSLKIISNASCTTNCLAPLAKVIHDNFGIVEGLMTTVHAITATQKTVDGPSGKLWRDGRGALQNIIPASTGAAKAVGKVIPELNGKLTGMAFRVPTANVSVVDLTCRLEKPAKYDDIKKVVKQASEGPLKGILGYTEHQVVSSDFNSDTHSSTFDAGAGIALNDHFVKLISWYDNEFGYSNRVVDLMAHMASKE
Large T antigen, sequence (P03070 whole entry): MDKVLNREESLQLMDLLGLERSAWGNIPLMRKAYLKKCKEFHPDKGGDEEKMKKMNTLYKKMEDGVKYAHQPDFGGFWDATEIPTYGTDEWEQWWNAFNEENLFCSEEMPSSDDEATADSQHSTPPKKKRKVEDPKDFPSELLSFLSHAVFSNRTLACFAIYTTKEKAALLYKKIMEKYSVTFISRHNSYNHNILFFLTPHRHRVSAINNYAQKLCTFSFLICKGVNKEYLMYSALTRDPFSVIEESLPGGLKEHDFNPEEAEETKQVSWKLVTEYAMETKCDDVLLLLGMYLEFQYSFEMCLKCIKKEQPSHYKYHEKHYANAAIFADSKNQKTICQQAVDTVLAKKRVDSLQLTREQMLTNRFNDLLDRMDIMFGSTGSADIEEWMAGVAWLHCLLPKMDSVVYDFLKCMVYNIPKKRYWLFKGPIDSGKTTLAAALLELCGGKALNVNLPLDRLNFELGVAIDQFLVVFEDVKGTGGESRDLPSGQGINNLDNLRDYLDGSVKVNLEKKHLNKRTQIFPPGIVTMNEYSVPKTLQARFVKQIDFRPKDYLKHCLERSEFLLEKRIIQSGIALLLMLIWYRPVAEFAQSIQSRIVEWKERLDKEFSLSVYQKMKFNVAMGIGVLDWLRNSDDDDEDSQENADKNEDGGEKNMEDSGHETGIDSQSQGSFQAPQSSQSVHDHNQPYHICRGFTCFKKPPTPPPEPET

For the compound `COc1ccc(CCNc2oc(-c3cccc4ccccc34)nc2P(=O)(OC)OC)cc1OC`, the AC50 in experiment [1] is 1.1 µM (active); in experiment [2] it was 10.6 µM (active); in experiment [3], 5 µM (active); in [4], 7.26 µM (active).
For the compound `O=C(/C=C/c1cccc([N+](=O)[O-])c1)NCCSCc1ccc(Cl)cc1Cl`, the IC50 is 9.88 µM (active) in [5] and 10.4 µM (active) in [6].
Regarding `CCN(C[C@H]1N[C@@](CC)(C(=O)OC)[C@H]2C(=O)N(Cc3ccccc3)C(=O)[C@@H]12)C(=O)Nc1ccc(OC)cc1`, the AC50 was 0.993 µM (active) in [1], 1.23 µM (active) in [2], 0.421 µM (active) in [3] and 0.581 µM (active) in experiment [4].
In the case of `Cn1cc(/C=N/n2cnc3scc(-c4ccc(Cl)cc4)c3c2=O)c2ccccc21`, the EC50 in [7] was > 300 µM (not active); in experiment [9], 1.77 µM (active); in experiment [10], 1.1 µM (active); in experiment [11], 1.07 µM (active); in experiment [12] it was 0.85 µM (active); in experiment [13], > 300 µM (not active). Also, the IC50 in experiment [8] was > 80 µM (inactive).
Turning to `Cc1c(N=N/C(C#N)=C(\O)c2ccccc2)c(=O)n(-c2ccccc2)n1C`, the concentration for a half-maximal effect (EC50) in experiment [14] is 7.26 µM (active); in experiment [16], 2.43 µM (active). Also, the IC50 in experiment [15] is 8.08 µM (active).
For `Cc1cc(C)c(NC(=O)COC(=O)c2cc([N+](=O)[O-])ccc2N2CCOCC2)c(C)c1`, the results for the IC50 in experiment [5] and in experiment [6] were 10.8 µM (active) and 6.16 µM (active), respectively.
In the case of `N#Cc1c(N)[nH]c(C(=O)c2ccccc2)c1-c1ccc(Cl)cc1`, the values for the half-inhibitory concentration (IC50) in experiment [5] and in experiment [6] were 13.3 µM (active) and 7.39 µM (active), respectively.
As to `COc1ccc(N2CCN(C(=O)C3CCC(Cn4c(=S)[nH]c5ccccc5c4=O)CC3)CC2)cc1` (stereo unspecified), the AC50 in experiment [1] is 10 µM (active). Moreover, in [15], the half-maximal inhibitory concentration (IC50) is > 100 µM (active).
For the compound `O=C(NCCCn1ccnc1)C(=O)NCC(c1cccnc1)N1CCN(c2ccc(F)cc2)CC1` (stereo unspecified), in [15], the concentration for half-maximal inhibition (IC50) was > 100 µM (active).
As for `CCOc1ccc2c(c1)OC(c1ccc(C)cc1)(C(F)(F)F)NC2=O` (stereo unspecified), the half-maximal effective concentration (EC50) in experiment [17] is > 160 µM (inconclusive); in experiment [9], 29.9 µM (inconclusive); in experiment [10] it was 1.32 µM (inconclusive); in [11], 4.54 µM (inconclusive); in experiment [18], > 38 µM (not active); in [12] it was 11.7 µM (inconclusive). Besides, the IC50 in experiment [8] was > 80 µM (inactive).
Consider `CC(=O)c1c(O)cc2c3c1OC(C)(C)C1CCC(C)(CC31)O2` (stereo unspecified), for which the half-maximal activity concentration (AC50) in experiment [1] was 9.92 µM (active); in [2], 13.1 µM (active); in experiment [3], 5.16 µM (active); in experiment [4], 1.07 µM (active).
For `CCOC(=O)[C@@H]1[C@H]2COc3ccc(Br)cc3[C@@H]2N2C(=O)N(c3ccc(F)cc3)C(=O)[C@@]12C` the same measures were 4.5 µM (active), 3.77 µM (active), 1.72 µM (active) and 5.78 µM (active).
As to `CCCn1c(SCC(=O)Nc2ccccc2-c2ccccc2)nnc1-c1ccoc1C`, the values for the IC50 in experiment [5] and in [6] were 7.42 µM (active) and 8.34 µM (active), respectively.
With `COc1ccc(S(=O)(=O)Nc2cccc(-c3ccc4nncn4n3)c2)cc1F`, the IC50 in [8] was > 80 µM (inactive).
As for `COc1cc(/C=C(\C#N)c2ccccn2)cc(OC)c1O`, in experiment [19], the concentration for half-maximal inhibition (IC50) is 14.5 µM (active).
Take `COc1cccc(N2CCN(C3=C(Cl)C(=O)N(c4ccc(C)cc4)C3=O)CC2)c1`: the IC50 in experiment [20] was > 50 µM (inconclusive).
Regarding `Cc1ccc(Cn2c(C)nc3ccc([N+](=O)[O-])cc3c2=O)cc1`, the IC50 in experiment [5] was 5.2 µM (active); in experiment [6] it was 4.8 µM (active).
In the case of `O=C(CSc1n[nH]c(-c2ccccn2)n1)Nc1ccccc1`, the concentration giving a half-maximal response (EC50) in experiment [21], in experiment [22] and in experiment [23] was > 120 µM (not active) throughout. The IC50 in experiment [15] is 5.02 µM (active).
As for `Oc1ccc(Nc2nc3ccccc3nc2Nc2ccc(O)cc2)cc1`, in experiment [8], the IC50 is 67.3 µM (inactive). In addition, the EC50 is 1.25 µM (active) in [24]; > 30 µM (not active) in [25]; > 195 µM (not active) in [26]; 4.43 µM (active) in experiment [27]; 21.4 µM (active) in [21]; 1.19 µM (active) in experiment [28]. The EC50 in [22] is > 120 µM (not active); in experiment [23] it was 117 µM (active).
As to `Cc1ccc2cc(C#N)c(NCCNC(=O)C3CCC3)nc2c1C`, the AC50 in experiment [1] is 8.62 µM (active); in experiment [2], 11 µM (active); in [3], 9.91 µM (active); in [4], 9.78 µM (active).

As a reminder, the AC50 is the midpoint of the concentration-response curve, whichever way the signal moves. The term IC50 denotes the midpoint of a concentration-inhibition curve. The EC50 is the concentration that produces a half-maximal response.
